This passage reports IC50 results from the Kinase Knowledgebase extract (Sharma et al. 2016).

Molecules are shown by their SMILES.

Assay [1] concerns the target CDK2 (human) (UniProt P24941). Kind of assay: Enzyme Assay.
In assay [2] the target is CDK2 (human) (UniProt P24941). Kind of assay: Enzyme Assay. The source holds these as a separate data set.

In turn, `Cc1cccc(C(=O)c2sc(Nc3ccc(N4CCC(N5CCCC5)CC4)cc3)nc2N)c1` had an IC50 on CDK2 (human) [1] of 2.62 µM.
`Nc1nc(Nc2ccc(N3CCC(N4CCCC4)CC3)cc2)sc1C(=O)c1ccc2c(c1)OCCO2` had an IC50 at CDK2 (human) [2] of 3.49 µM.
Take `Cc1cccc(C(=O)c2sc(Nc3ccc(N4CCC(N5CCCCC5)CC4)cc3)nc2N)c1`: the IC50 against CDK2 (human) [1] and against CDK2 (human) [2] was 2.92 µM throughout.
On to `CCc1cccc(C(=O)c2sc(Nc3ccc(N4CCC(N5CCNCC5)CC4)cc3)nc2N)c1`, for which, at CDK2 (human) [2], the IC50 came out at 0.989 µM.
`Cc1cccc(C(=O)c2sc(Nc3ccc(N4CCC(N(C)C)CC4)cc3)nc2N)c1` had an IC50 at CDK2 (human) [1] of 3.52 µM.
The compound `COc1cccc(C(=O)c2sc(Nc3ccc(N4CCC(N5CCCC(O)C5)CC4)cc3)nc2N)c1` (configuration not stated) gave an IC50 at CDK2 (human) [2] of 0.97 µM.
